US20230131899A1, “INHIBITORS OF MICROBIALLY INDUCED AMYLOID” (Axial Therapeutics, Inc., priority 2020, published 2023)
Like-named read-outs stand apart in the source and are kept apart here.

Biological target: T1, human α-synuclein (Homo sapiens, UniProt P37840)
T1 construct: the full-length gene for untagged human α-synuclein was inserted; made in house; host or cells: E. coli BL21(DE3), plasmid derived from pT7 or pET11a
Experiment: Cell-free Thioflavin T assay of α-synuclein aggregation (αSyn ThT Assay)
Format: biochemical
Details: αSyn 50 μM
How it was run: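 Untagged full-length human α-synuclein from E. coli, 50 μM, with 20-40 μM ThT, 1% DMSO, compound at 20-100 μM and a glass bead, 37° C. with shaking. Fluorescence (ex 438/em 495 nm) read hourly to 73 h. Compound-only background subtracted and values normalised to vehicle at 36-72 h or final timepoint, giving % inhibition.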

[1] = mean % inhibition of αSyn aggregation relative to DMSO control, compounds at 100 μM, read-out: αSyn ThT Assay % Inhibition
[2] = compounds at 100 μM, class symbol, read-out: αSyn ThT Assay % Inhibition (activity range)
[3] = class symbol, compounds 100 μM, read-out: αSyn ThT Assay % inhibition, activity range
[4] = mean percent inhibition relative to DMSO control, compounds 100 μM, read-out: αSyn ThT Assay % inhibition

In the case of O=C(O)C1CN(C[C@@H](O)CO)S(=O)(=O)c2c(-c3cccc(C(F)(F)F)c3)c(Cc3cccc4ccccc34)cc(=O)n21 (mixture of isomers) [Compound 065b, 2-((R)-2,3-dihydroxypropyl)-8-(naphthalen-1-ylmethyl)-6-oxo-9-(3-(trifluoromethyl)phenyl)-3,4-dihydro-2H,6H-pyrido[1,2-e][1,2,5]thiadiazine-4-carboxylic acid 1,1-dioxide], the inhibition at 100 µM [1] is reported as 9% and the inhibition at 100 µM [2] is reported as -10 to 10%.
O=C(O)C1CN(C[C@H](O)[C@@H](O)[C@H](O)[C@H](O)CO)S(=O)(=O)c2c(-c3cccc(C(F)(F)F)c3)c(Cc3cccc4ccccc34)cc(=O)n21 (mixture of isomers) [Compound 066, 8-(naphthalen-1-ylmethyl)-6-oxo-2-((2S,3R,4R,5R)-2,3,4,5,6-pentahydroxyhexyl)-9-(3-(trifluoromethyl)phenyl)-3,4-dihydro-2H,6H-pyrido[1,2-e][1,2,5]thiadiazine-4-carboxylic acid 1,1-dioxide] was tested, and the inhibition at 100 µM [1] was 13% and the inhibition at 100 µM [2] was 11 to 30%.
O=C(O)[C@H]1CN(Cc2ccccc2)c2c(-c3cccc(C(F)(F)F)c3)c(Cc3cccc4ccccc34)c(Cl)c(=O)n21 (single isomer, unassigned) [Compound 004b] showed an inhibition at 100 µM [3] of 31 to 60% and an inhibition at 100 µM [4] of 44%.
In the case of CCCN1CC(C(=O)O)n2c(c(-c3cccc(C(F)(F)F)c3)c(Cc3cccc4ccccc34)cc2=O)S1(=O)=O (single isomer, unassigned) [Compound 016b, 8-(naphthalen-1-ylmethyl)-6-oxo-2-propyl-9-(3-(trifluoromethyl)phenyl)-3,4-dihydro-2H,6H-pyrido[1,2-e][1,2,5]thiadiazine-4-carboxylic acid 1,1-dioxide], the inhibition at 100 µM [1] is reported as 95% and the inhibition at 100 µM [2] is reported as > 60%.
Nc1c(Cc2cccc3ccccc23)c(-c2cccc(C(F)(F)F)c2)c2n(c1=O)C(C(=O)O)CS2 (single isomer, unassigned) [Compound 020b, 6-amino-7-(naphthalen-1-ylmethyl)-5-oxo-8-(3-(trifluoromethyl)phenyl)-2,3-dihydro-5H-thiazolo[3,2-a]pyridine-3-carboxylic acid] gave an inhibition at 100 µM [1] of 25% and an inhibition at 100 µM [2] of 11 to 30%.
CCCCCN1CC(C(=O)O)n2c(c(-c3cccc(C(F)(F)F)c3)c(Cc3cccc4ccccc34)cc2=O)S1(=O)=O (single isomer, unassigned) [Compound 025a, 8-(naphthalen-1-ylmethyl)-6-oxo-2-pentyl-9-(3-(trifluoromethyl)phenyl)-3,4-dihydro-2H,6H-pyrido[1,2-e][1,2,5]thiadiazine-4-carboxylic acid 1,1-dioxide] gave an inhibition at 100 µM [1] of 50% and an inhibition at 100 µM [2] of 31 to 60%.
For O=C(O)C1CN(Cc2ccccc2)c2c(-c3cccc(C(F)(F)F)c3)c(Cc3cccc4ccccc34)c(Br)c(=O)n21 (stereo not drawn) [Compound 003, 1-benzyl-6-bromo-7-(naphthalen-1-ylmethyl)-5-oxo-8-(3-(trifluoromethyl)phenyl)-1,2,3,5-tetrahydroimidazo[1,2-a]pyridine-3-carboxylic acid], the inhibition at 100 µM [3] was > 60% and the inhibition at 100 µM [4] was 76%.
For O=C(O)C1CN(Cc2ccccc2)c2c(-c3cccc(C(F)(F)F)c3)c(Cc3cccc4ccccc34)c(Cl)c(=O)n21 (stereo not drawn) [Compound 004, 1-benzyl-6-chloro-7-(naphthalen-1-ylmethyl)-5-oxo-8-(3-(trifluoromethyl)phenyl)-1,2,3,5-tetrahydroimidazo[1,2-a]pyridine-3-carboxylic acid], the inhibition at 100 µM [3] was 31 to 60% and the inhibition at 100 µM [4] was 55%.
CNC(=O)C1CN(C)S(=O)(=O)c2c(-c3cccc(C(F)(F)F)c3)c(Cc3cccc4ccccc34)cc(=O)n21 (stereo not drawn) [Compound 031, N,2-dimethyl-8-(naphthalen-1-ylmethyl)-6-oxo-9-(3-(trifluoromethyl)phenyl)-3,4-dihydro-2H,6H-pyrido[1,2-e][1,2,5]thiadiazine-4-carboxamide 1,1-dioxide] gave an inhibition at 100 µM [1] of 18% and an inhibition at 100 µM [2] of 11 to 30%.
In the case of CN(C)C(=O)C1CN(C)S(=O)(=O)c2c(-c3cccc(C(F)(F)F)c3)c(Cc3cccc4ccccc34)cc(=O)n21 (stereo not drawn) [Compound 032, N,N-2-trimethyl-8-(naphthalen-1-ylmethyl)-6-oxo-9-(3-(trifluoromethyl)phenyl)-3,4-dihydro-2H,6H-pyrido[1,2-e][1,2,5]thiadiazine-4-carboxamide 1,1-dioxide], the inhibition at 100 µM [1] is reported as 8% and the inhibition at 100 µM [2] is reported as -10 to 10%.
Cn1c(=O)c2c(ncn2CCCCN2CC(C(=O)O)n3c(c(-c4cccc(C(F)(F)F)c4)c(Cc4cccc5ccccc45)cc3=O)S2(=O)=O)n(C)c1=O (stereo not drawn) [Compound 033, 2-(4-(1,3-dimethyl-2,6-dioxo-1,2,3,6-tetrahydro-7H-purin-7-yl)butyl)-8-(naphthalen-1-ylmethyl)-6-oxo-9-(3-(trifluoromethyl)phenyl)-3,4-dihydro-2H,6H-pyrido[1,2-e][1,2,5]thiadiazine-4-carboxylic acid 1,1-dioxide] was tested, and the inhibition at 100 µM [1] was 6% and the inhibition at 100 µM [2] was -10 to 10%.
Work on Cn1c(=O)c2c(ncn2CCCCCN2CC(C(=O)O)n3c(c(-c4cccc(C(F)(F)F)c4)c(Cc4cccc5ccccc45)cc3=O)S2(=O)=O)n(C)c1=O (stereo not drawn) [Compound 034, 2-(5-(1,3-dimethyl-2,6-dioxo-1,2,3,6-tetrahydro-7H-purin-7-yl)pentyl)-8-(naphthalen-1-ylmethyl)-6-oxo-9-(3-(trifluoromethyl)phenyl)-3,4-dihydro-2H,6H-pyrido[1,2-e][1,2,5]thiadiazine-4-carboxylic acid 1,1-dioxide] yielded an inhibition at 100 µM [1] of 5% and an inhibition at 100 µM [2] of -10 to 10%.
Cn1c(=O)c2c(ncn2CCCCCCCN2CC(C(=O)O)n3c(c(-c4cccc(C(F)(F)F)c4)c(Cc4cccc5ccccc45)cc3=O)S2(=O)=O)n(C)c1=O (stereo not drawn) [Compound 036] showed an inhibition at 100 µM [1] of 16% and an inhibition at 100 µM [2] of 11 to 30%.
With CNC(=O)CCCN1CC(C(=O)O)n2c(c(-c3cccc(C(F)(F)F)c3)c(Cc3cccc4ccccc34)cc2=O)S1(=O)=O (stereo not drawn) [Compound 037, 2-(4-(methylamino)-4-oxobutyl)-8-(naphthalen-1-ylmethyl)-6-oxo-9-(3-(trifluoromethyl)phenyl)-3,4-dihydro-2H,6H-pyrido[1,2-e][1,2,5]thiadiazine-4-carboxylic acid 1,1-dioxide] the inhibition at 100 µM [1] was 36% and the inhibition at 100 µM [2] was 31 to 60%.
For CNC(=O)CCCCN1CC(C(=O)O)n2c(c(-c3cccc(C(F)(F)F)c3)c(Cc3cccc4ccccc34)cc2=O)S1(=O)=O (stereo not drawn) [Compound 038, 2-(5-(methylamino)-5-oxopentyl)-8-(naphthalen-1-ylmethyl)-6-oxo-9-(3-(trifluoromethyl)phenyl)-3,4-dihydro-2H,6H-pyrido[1,2-e][1,2,5]thiadiazine-4-carboxylic acid 1,1-dioxide], the inhibition at 100 µM [1] was 42% and the inhibition at 100 µM [2] was 31 to 60%.
Nc1c(Cc2ccc(N)c3ccccc23)c(-c2cccc(C(F)(F)F)c2)c2n(c1=O)C(C(=O)O)CNS2(=O)=O (stereo not drawn) [Compound 041] gave an inhibition at 100 µM [1] of 25% and an inhibition at 100 µM [2] of 11 to 30%.
CC1(C(=O)O)CNS(=O)(=O)c2c(-c3cccc(C(F)(F)F)c3)c(Cc3cccc4ccccc34)cc(=O)n21 (stereo not drawn) [Compound 042, 4-methyl-8-(naphthalen-1-ylmethyl)-6-oxo-9-(3-(trifluoromethyl)phenyl)-3,4-dihydro-2H,6H-pyrido[1,2-e][1,2,5]thiadiazine-4-carboxylic acid 1,1-dioxide] was tested, and the inhibition at 100 µM [1] was 84% and the inhibition at 100 µM [2] was > 60%.
In the case of Cn1c(=O)c2c(nc(CCCCN3CC(C(=O)O)n4c(c(-c5cccc(C(F)(F)F)c5)c(Cc5cccc6ccccc56)cc4=O)S3(=O)=O)n2C)n(C)c1=O (stereo not drawn) [Compound 044, 8-(naphthalen-1-ylmethyl)-6-oxo-9-(3-(trifluoromethyl)phenyl)-2-(4-(1,3,7-trimethyl-2,6-dioxo-2,3,6,7-tetrahydro-1H-purin-8-yl)butyl)-3,4-dihydro-2H,6H-pyrido[1,2-e][1,2,5]thiadiazine-4-carboxylic acid 1,1-dioxide], the inhibition at 100 µM [1] is reported as 10% and the inhibition at 100 µM [2] is reported as -10 to 10%.
Cn1c(=O)c2c(nc(CCCCCN3CC(C(=O)O)n4c(c(-c5cccc(C(F)(F)F)c5)c(Cc5cccc6ccccc56)cc4=O)S3(=O)=O)n2C)n(C)c1=O (stereo not drawn) [Compound 045, 8-(naphthalen-1-ylmethyl)-6-oxo-9-(3-(trifluoromethyl)phenyl)-2-(5-(1,3,7-trimethyl-2,6-dioxo-2,3,6,7-tetrahydro-1H-purin-8-yl)pentyl)-3,4-dihydro-2H,6H-pyrido[1,2-e][1,2,5]thiadiazine-4-carboxylic acid 1,1-dioxide] gave an inhibition at 100 µM [1] of 15% and an inhibition at 100 µM [2] of 11 to 30%.
Compound Cn1c(=O)c2c(nc(CCCCCCN3CC(C(=O)O)n4c(c(-c5cccc(C(F)(F)F)c5)c(Cc5cccc6ccccc56)cc4=O)S3(=O)=O)n2C)n(C)c1=O (stereo not drawn) [Compound 046, 8-(naphthalen-1-ylmethyl)-6-oxo-9-(3-(trifluoromethyl)phenyl)-2-(6-(1,3,7-trimethyl-2,6-dioxo-2,3,6,7-tetrahydro-1H-purin-8-yl)hexyl)-3,4-dihydro-2H,6H-pyrido[1,2-e][1,2,5]thiadiazine-4-carboxylic acid 1,1-dioxide] has an inhibition at 100 µM [1] of 28% and an inhibition at 100 µM [2] of 11 to 30%.
Cn1c(=O)c2c(nc(CCCCCCCN3CC(C(=O)O)n4c(c(-c5cccc(C(F)(F)F)c5)c(Cc5cccc6ccccc56)cc4=O)S3(=O)=O)n2C)n(C)c1=O (stereo not drawn) [Compound 047, 8-(naphthalen-1-ylmethyl)-6-oxo-9-(3-(trifluoromethyl)phenyl)-2-(7-(1,3,7-trimethyl-2,6-dioxo-2,3,6,7-tetrahydro-1H-purin-8-yl)heptyl)-3,4-dihydro-2H,6H-pyrido[1,2-e][1,2,5]thiadiazine-4-carboxylic acid 1,1-dioxide] was tested, and the inhibition at 100 µM [1] was 21% and the inhibition at 100 µM [2] was 11 to 30%.
